Test results reported in US20070179120A1, “HYDROXYL COMPOUNDS AND COMPOSITIONS FOR CHOLESTEROL MANAGEMENT AND RELATED USES” (ESPERION THERAPEUTICS, INC., priority 2003, published 2007).
Like-named read-outs stand apart in the source and are kept apart here. Values belong to the molecule of their own block, whether it stands above or below them.

Tests used:
primary rat hepatocytes = assay: Inhibition of lipid synthesis ([1-14C]-acetate incorporation) in primary rat hepatocytes; type: cell-based; conditions: Hepatocyte, 4 hours incubation, 0-300 μM
Description: Compounds were tested for inhibition of lipid synthesis in primary cultures of rat hepatocytes. Male Sprague-Dawley rats were anesthetized with intraperitoneal injection of sodium pentobarbital (80 mg/kg). Rat hepatocytes were isolated essentially as described by the method of Seglen (Seglen, P. O. Hepatocyte suspensions and cultures as tools in experimental carcinogenesis. J. Toxicol. Environ. Health 1979, 5, 551-560). Hepatocytes were suspended in Dulbecco's Modified Eagles Medium containing 25 mM D-glucose, 14 mM HEPES, 5 mM L-glutamine, 5 mM leucine, 5 mM alanine, 10 mM lactate, 1 mM pyruvate, 0.2% bovine serum albumin, 17.4 mM non-essential amino acids, 20% fetal bovine serum, 100 nM insulin and 20 μg/mL gentamycin) and plated at a density of 1.5×10^5 cells/cm^2 on collagen-coated 96-well plates. Four hours after plating, media was replaced with the same media without serum. Cells were grown overnight to allow formation of monolayer cultures. Lipid synthesis incubation conditions were initially assessed to ensure the linearity of [1-^14C]-acetate incorporation into hepatocyte lipids for up to 4 hours. Hepatocyte lipid synthesis inhibitory activity was assessed during incubations in the presence of 0.25 μCi [1-^14C]-acetate/well (final radiospecific activity in assay is 1 Ci/mol) and 0, 1, 3, 10, 30, 100 or 300 μM of compounds for 4 hours. At the end of the 4-hour incubation period, medium was discarded and cells were washed twice with ice-cold phosphate buffered saline and stored frozen prior to analysis. To determine total lipid synthesis, 170 μl of MicroScint-E® and 50 μl water was added to each well to extract and partition the lipid soluble products to the upper organic phase containing the scintillant. Lipid radioactivity was assessed by scintillation spectroscopy in a Packard TopCount NXT.

obese female Zucker rats = assay: Oral daily treatment of obese female Zucker rats for fourteen days: serum lipids, glycemic control indicators, body weight; type: in vivo, rat; conditions: for change in vivo at 100 mg/kg/day / change in vivo at 100 mg/kg: Rattus norvegicus, 336 h; for change in vivo at 100 mg/kg/day: 100 mg/kg/day oral gavage, read-out: % wt. gain; for change in vivo at 100 mg/kg / HDL-C/non-HDL-C: 100 mg/kg/day oral; for HDL-C/non-HDL-C: serum ratio
Description: In a number of different experiments, illustrative compounds of the invention are administered daily at a dose of up to 100 mg/kg to chow fed obese female Zucker rats for fourteen days in the morning by oral gavage in 1.5% carboxymethylcellulose/0.2% Tween 20 or 20% ethanol/80% polyethylene glycol (dosing vehicles). Animals are weighed daily. Animals are allowed free access to rodent chow and water throughout the study except on days of blood sampling where food is restricted for six hours prior to blood sampling. Blood glucose is determined after the 6 hour fast in the afternoon without anesthesia from a tail vein. Serum is also prepared from pretreatment blood samples subsequently obtained from the orbital venous plexus (with O2/CO2 anesthesia) and following the fourteenth dose at sacrifice from the heart following O2/CO2 anesthesia. Serums are assayed for lipoprotein cholesterol profiles, triglycerides, total cholesterol, Non-HDL cholesterol, HDL cholesterol, the ratio of HDL cholesterol to that of Non-HDL cholesterol, insulin, non-esterified fatty acids, and beta-hydroxy butyric acid. The percent body weight gain and the ratio of liver to body weight is also determined. These are shown as absolute values or as a percent change of the pretreatment values in Table 1 for compounds A-K and in Table 2 for compounds L-M. [drawing 111]

[1] = blood glucose after 6 hour fast, read-out: Glucose (Percent of Pre-treatment)
[2] = serum beta-hydroxy butyric acid, read-out: BHA (Percent of Pre-treatment)
[3] = serum non-esterified fatty acids, read-out: NEFA (Percent of Pre-treatment)
[4] = serum total cholesterol, read-out: TC (Percent of Pre-treatment)
[5] = serum triglycerides, read-out: TG (Percent of Pre-treatment)
[6] = serum, read-out: HDL-C (Percent of Pre-treatment)
[7] = serum, read-out: Insulin (Percent of Pre-treatment)
[8] = serum, read-out: Non-HDL-C (Percent of Pre-treatment)

Structure (SMILES): CC(C)(CCCCC(O)CCCCC(C)(C)C(=O)O)C(=O)O [A]
IC50 (primary rat hepatocytes): 3.4 µM | change in vivo at 100 mg/kg/day (obese female Zucker rats): 12% | change in vivo at 100 mg/kg (obese female Zucker rats; [1]): -2% | change in vivo at 100 mg/kg (obese female Zucker rats; [2]): 231% | change in vivo at 100 mg/kg (obese female Zucker rats; [3]): -11% | change in vivo at 100 mg/kg (obese female Zucker rats; [4]): 14% | change in vivo at 100 mg/kg (obese female Zucker rats; [5]): -59% | change in vivo at 100 mg/kg (obese female Zucker rats; [6]): 50% | change in vivo at 100 mg/kg (obese female Zucker rats; [7]): 43% | change in vivo at 100 mg/kg (obese female Zucker rats; [8]): -41% | HDL-C/non-HDL-C (obese female Zucker rats): 5

Structure (SMILES): CC(C)(CCCCCC(O)CCCCCC(C)(C)C(=O)O)C(=O)O [C]
IC50 (primary rat hepatocytes): 1 µM | change in vivo at 100 mg/kg/day (obese female Zucker rats): 3% | change in vivo at 100 mg/kg (obese female Zucker rats; [1]): -11% | change in vivo at 100 mg/kg (obese female Zucker rats; [2]): 171% | change in vivo at 100 mg/kg (obese female Zucker rats; [3]): -42% | change in vivo at 100 mg/kg (obese female Zucker rats; [4]): 105% | change in vivo at 100 mg/kg (obese female Zucker rats; [5]): -90% | change in vivo at 100 mg/kg (obese female Zucker rats; [6]): 169% | change in vivo at 100 mg/kg (obese female Zucker rats; [7]): -57% | change in vivo at 100 mg/kg (obese female Zucker rats; [8]): -80% | HDL-C/non-HDL-C (obese female Zucker rats): 40

Structure (SMILES): CC(C)(CO)CCCCC(O)CCCCC(C)(C)CO [Compound 6.1, 2,2,12,12-Tetramethyltridecane-1,7,13-triol]
melting point: 72 to 74 °C

Structure (SMILES): CC(C)(CO)CCCCC(CCCCC(C)(C)CO)C(C)(C)O [Compound 6.12, 7-(1-Hydroxy-1-methylethyl)-2,2,12,12-tetramethyltridecane-1,13-diol]
melting point: 72 to 74 °C

Structure (SMILES): CC(C)(CO)CCCCCC(O)CCCCCC(C)(C)CO [Compound 6.17, 2,2,14,14-Tetramethylpentadecane-1,8,15-triol]
melting point: 71 to 75 °C

Structure (SMILES): CC(C)(CO)CCCCCC(O)CCCCC(C)(C)CO (centres unmarked) [Compound 6.27, 2,2,13,13-Tetramethyltetradecane-1,7,14-triol]
melting point: 79 to 80 °C

Continued, values first:

melting point: 75 to 77 °C
Structure (SMILES): CC(C)(CO)CCCCCCC(O)CCCCCCC(C)(C)CO [Compound 6.32, 2,2,16,16-Tetramethylheptadecane-1,9,17-triol]

melting point: 65 to 67 °C
Structure (SMILES): CC(C)(CCCCCC(O)CCCCCC(C)(C)CC(=O)c1cccnc1)COC(=O)c1cccnc1 (centres unmarked) [Compound 6.37, Nicotinic acid 8-hydroxy-2,2,14,14-tetramethyl-15-nicotinoylpentadecyl ester]

melting point: 98 to 99 °C
Structure (SMILES): CC(C)(CO)Cc1cccc(C(O)c2cccc(CC(C)(C)CO)c2)c1 [Compound 6.46, 3-(3-{Hydroxy-[3-(3-hydroxy-2,2-dimethylpropyl)-phenyl]-methyl}-phenyl)-2,2-dimethylpropan-1-ol]
